Where two headings read alike, the source gives them in different places.
Columns and labels:
[1] = tested on: breast line MDA468; assay: In vitro cell culture growth assay (MTS), MDA468; assay type: cell-based; conditions: Homo sapiens, 72 h, MDA468 cells, three days after drug treatment
Method: (§1) Human tumor cell lines used include prostate lines LNCap and PC3MM2, breast lines MDA468, MCF7, renal line HTB44 (A498), colon line HCT116, and ovarian line OVCAR3. Cells were plated in 96-well culture plates. One day following plating, the inhibitors were added to cells. Three days after drug treatment, viable cell densities were determined by metabolic conversion (by viable cells) of the dye MTS, a well-established cell proliferation assay. The assays were performed using an assay kit purchased from Promega Corp. (Madison, Wis.) following the protocol supplied with the kit. The MTS assay results were read in a 96-well plate reader by measuring absorbance at 490 nm. The effect of each treatment was calculated as percent of control growth relative to the vehicle-treated cells grown in the same culture plate.

[2] = target: T1, PI3K (Homo sapiens, UniProt P48736); assay: Fluorescence polarization assay for PI3K; assay type: biochemical; conditions: read-out: PI3 Kinase γ IC50
T1 construct: PI3 Kinase γ IC50; other: PI3 Kinase γ; other: PI3 Kinase γ isoform, fluorescence polarization
T1 sequence (P48736 whole entry, canonical isoform): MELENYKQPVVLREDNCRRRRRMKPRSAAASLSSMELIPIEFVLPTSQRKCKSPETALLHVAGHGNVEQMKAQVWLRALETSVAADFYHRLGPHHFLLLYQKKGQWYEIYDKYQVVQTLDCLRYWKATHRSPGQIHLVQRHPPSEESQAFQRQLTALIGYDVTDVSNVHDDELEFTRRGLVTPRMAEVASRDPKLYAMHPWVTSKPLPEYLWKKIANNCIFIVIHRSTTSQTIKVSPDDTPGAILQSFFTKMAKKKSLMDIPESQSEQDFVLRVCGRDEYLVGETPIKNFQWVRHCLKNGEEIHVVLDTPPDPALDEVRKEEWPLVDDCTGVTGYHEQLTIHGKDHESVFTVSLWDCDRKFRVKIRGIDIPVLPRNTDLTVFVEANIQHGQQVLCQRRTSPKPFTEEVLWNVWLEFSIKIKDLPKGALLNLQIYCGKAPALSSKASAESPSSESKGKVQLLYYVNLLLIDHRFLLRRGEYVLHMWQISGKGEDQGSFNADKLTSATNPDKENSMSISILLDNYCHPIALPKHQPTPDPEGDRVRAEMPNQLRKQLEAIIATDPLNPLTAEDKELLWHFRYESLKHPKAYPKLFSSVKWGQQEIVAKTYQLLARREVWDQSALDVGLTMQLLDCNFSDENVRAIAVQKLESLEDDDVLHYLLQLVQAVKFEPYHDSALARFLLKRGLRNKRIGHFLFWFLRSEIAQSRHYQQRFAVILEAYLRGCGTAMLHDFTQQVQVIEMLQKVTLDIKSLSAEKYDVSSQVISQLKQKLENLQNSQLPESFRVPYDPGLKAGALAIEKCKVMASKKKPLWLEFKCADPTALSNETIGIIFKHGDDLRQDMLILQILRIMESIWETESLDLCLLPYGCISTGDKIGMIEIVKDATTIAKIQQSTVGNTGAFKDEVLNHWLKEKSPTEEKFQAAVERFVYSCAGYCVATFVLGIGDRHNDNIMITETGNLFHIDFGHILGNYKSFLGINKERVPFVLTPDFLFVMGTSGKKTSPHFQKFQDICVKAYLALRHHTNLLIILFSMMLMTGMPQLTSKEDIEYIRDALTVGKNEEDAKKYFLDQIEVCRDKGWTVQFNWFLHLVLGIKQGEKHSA
Method: (§2) This assay is used to determine the IC50 of compounds of the present invention as it identifies inhibitors of PI3 kinase by measuring inhibition.
(§3) The assay is run by placing 5 μL of diluted enzyme per well, then 5 μL of diluted compound (or 9.5 μL enzyme then 0.5 μL compound in DMSO) is added and mixed. Then, 10 μL substrate is added to start the reaction. The samples are incubated 30-60 minutes, then the reaction is stopped by adding 20 μL stop/detector mix. PI3K is diluted with reaction buffer (e.g., 5 μL or 7.5 μL PI3K into 620 μL reaction buffer), and 5 μL of diluted enzyme is used per well. 5 μL reaction buffer or drug diluted in buffer (e.g., 4 μL/100 so final DMSO is 1% in reaction) is added to each. Pipetting up and down mixes the samples. Alternatively, the enzyme can be diluted to 1215 μL. In this case 9.8 μL is added per well and 0.2 μL compound is added in DMSO. To prepare 1 mL of substrate solution, 955 μL reaction buffer, 40 μL PIP2, and 2.5 μL ATP are mixed. 10 μL of substrate is added to each well to start the reaction.
(§4) Stop/detector mix is prepared by mixing 4 μL Red detector and 1.6 μL or 2.0 μL GST-GRP with 1 mL Stop buffer, which results in 10 nM probe and 70 nM GST-GRP). 20 μL of the stop/detector mix is added to each well to stop the reaction. The plates are read after 30-90 minutes keeping the red probe solutions dark. For the zero time point, stop/detector mix is added to the enzyme just before adding substrate. For an extra control, stop/detector mix is added to buffer (no enzyme) and substrate or to just buffer (no substrate). […] Plates are read on machines with filters for Tamra. The units are mP with no enzyme controls reading app 190-220 mP units. Fully active enzyme reduces fluorescence polarization down to 70-100 mP after 30 minutes.

[3] = target: T2, PI3K (Homo sapiens, UniProt P42336); assay: Fluorescence polarization assay for PI3K; assay type: biochemical; conditions: read-out: PI3 Kinase α IC50
T2 construct: PI3 Kinase α IC50; other: PI3 Kinase α; other: PI3 Kinase α isoform, fluorescence polarization
T2 sequence (P42336 whole entry, canonical isoform): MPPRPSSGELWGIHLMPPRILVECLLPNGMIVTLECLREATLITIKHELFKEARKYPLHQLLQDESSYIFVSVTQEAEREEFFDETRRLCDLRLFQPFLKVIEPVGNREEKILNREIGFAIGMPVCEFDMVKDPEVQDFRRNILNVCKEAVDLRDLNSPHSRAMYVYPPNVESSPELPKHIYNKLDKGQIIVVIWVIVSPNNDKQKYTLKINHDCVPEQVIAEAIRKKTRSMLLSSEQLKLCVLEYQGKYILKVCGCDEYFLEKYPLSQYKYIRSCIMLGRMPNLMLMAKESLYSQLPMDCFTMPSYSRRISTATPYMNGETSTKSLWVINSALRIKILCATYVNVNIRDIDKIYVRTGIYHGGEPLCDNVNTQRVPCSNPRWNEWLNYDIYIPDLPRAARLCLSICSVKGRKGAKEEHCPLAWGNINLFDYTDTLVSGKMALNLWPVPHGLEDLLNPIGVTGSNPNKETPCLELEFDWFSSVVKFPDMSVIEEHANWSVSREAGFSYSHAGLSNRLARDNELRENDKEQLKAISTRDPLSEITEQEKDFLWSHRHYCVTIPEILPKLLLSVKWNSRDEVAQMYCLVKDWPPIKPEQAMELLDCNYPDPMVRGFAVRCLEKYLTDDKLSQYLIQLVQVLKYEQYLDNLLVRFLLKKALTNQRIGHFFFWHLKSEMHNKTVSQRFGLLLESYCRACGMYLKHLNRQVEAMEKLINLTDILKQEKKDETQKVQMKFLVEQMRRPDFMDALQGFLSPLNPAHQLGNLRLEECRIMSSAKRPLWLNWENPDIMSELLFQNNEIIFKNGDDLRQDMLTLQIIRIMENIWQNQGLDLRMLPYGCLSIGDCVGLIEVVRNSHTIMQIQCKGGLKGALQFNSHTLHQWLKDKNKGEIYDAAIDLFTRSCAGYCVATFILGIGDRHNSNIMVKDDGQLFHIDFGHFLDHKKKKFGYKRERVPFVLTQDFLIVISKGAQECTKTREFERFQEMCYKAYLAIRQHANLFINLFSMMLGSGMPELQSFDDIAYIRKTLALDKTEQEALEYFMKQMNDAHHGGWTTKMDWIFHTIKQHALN
Method: as §2, §3, §4

[4] = target: T3, Human mTOR (FLAG-TOR) (Homo sapiens, UniProt P42345); assay: Human mTOR kinase assay with purified enzyme, DELFIA format; assay type: biochemical
T3 construct: FLAG
Method: Enzymes are first diluted in kinase assay buffer (10 mM HEPES (pH 7.4), 50 mM NaCl, 50 mM β-glycerophosphate, 10 mM MnCl2, 0.5 mM DTT, 0.25 mM microcystin LR, and 100 mg/mL BSA). To each well, 12 μL of the diluted enzyme is mixed briefly with 0.5 μL test inhibitor or control vehicle dimethylsulfoxide (DMSO). […] The reaction plate is incubated for 2 hours (linear at 1-6 hours) at room temperature with gentle shaking and then terminated by adding 25 μL Stop buffer (20 mM HEPES (pH 7.4), 20 mM EDTA, 20 mM EGTA). […] The DELFIA Assay buffer and Enhancement solution can be purchased from PerkinElmer. 45 μL of the terminated kinase reaction mixture is transferred to a MaxiSorp plate (Nunc) containing 55 μL PBS. The His6-S6K is allowed to attach for 2 hours after which the wells are aspirated and washed once with PBS. 100 μL of DELFIA Assay buffer with 40 ng/mL Eu—P(T389)-S6K antibody is added. The antibody binding is continued for 1 hour with gentle agitation. The wells are then aspirated and washed 4 times with PBS containing 0.05% Tween-20 (PBST). 100 μL of DELFIA Enhancement solution is added to each well and the plates are read in a PerkinElmer Victor model plate reader. Data obtained is used to calculate enzymatic activity and enzyme inhibition by potential inhibitors.

[5] = tested on: prostate line LNCap; assay: In vitro cell culture growth assay (MTS), LNCap; assay type: cell-based; conditions: Homo sapiens, LNCaP, 72 h, LNCap cells, three days after drug treatment
Method: as §1

[6] = PI3 Kinase γ isoform, fluorescence polarization
[7] = PI3 Kinase α isoform, fluorescence polarization
[8] = purified human mTOR enzyme, DELFIA format

| SMILES | IC50 [1] [nM] | IC50 ([2]; PI3 Kinase γ) [nM] | IC50 ([3]; PI3 Kinase α) [nM] | IC50 [4] [nM] | IC50 [5] [nM] | IC50 [2, 6] [nM] | IC50 [3, 7] [nM] | IC50 [4, 8] [nM] |
| --- | --- | --- | --- | --- | --- | --- | --- | --- |
| CCn1ncc2c(N3CC4CCC(C3)O4)nc(-c3ccc(NC(=O)N[C@H]4CC[C@@H](N)CC4)cc3)nc21 (relative stereo) [Example 229, 1-(cis-4-aminocyclohexyl)-3-{4-[1-ethyl-4-(8-oxa-3-azabicyclo[3.2.1]oct-3-yl)-1H-pyrazolo[3,4-d]pyrimidin-6-yl]phenyl}urea] | 4000 | > 10000 | 2850 | 245 | 4900 |  |  |  |
| CCn1ncc2c(N3CC4CCC(C3)O4)nc(-c3ccc(NC(=O)N[C@H]4CC[C@H](N)CC4)cc3)nc21 (relative stereo) [Example 230, 1-(trans-4-aminocyclohexyl)-3-{4-[1-ethyl-4-(8-oxa-3-azabicyclo[3.2.1]oct-3-yl)-1H-pyrazolo[3,4-d]pyrimidin-6-yl]phenyl}urea] | 1500 | > 10000 | 2890 | 15.5 | 1300 |  |  |  |
| CNC(=O)Nc1ccc(-c2nc(N3CC4CCC(C3)O4)c3cnn([C@H]4CC[C@H](O)CC4)c3n2)cc1 (relative stereo) [Example 380, 1-{4-[1-(trans-4-hydroxycyclohexyl)-4-(8-oxa-3-azabicyclo[3.2.1]oct-3-yl)-1H-pyrazolo[3,4-d]pyrimidin-6-yl]phenyl}-3-methylurea] | 70 |  |  |  | 20 | > 10000 | 882 | 0.245 |
| CNC(=O)Nc1ccc(-c2nc(N3CC4CCC(C3)O4)c3cnn([C@H]4CC[C@@H](O)CC4)c3n2)cc1 (relative stereo) [Example 381, 1-{4-[1-(cis-4-hydroxycyclohexyl)-4-(8-oxa-3-azabicyclo[3.2.1]oct-3-yl)-1H-pyrazolo[3,4-d]pyrimidin-6-yl]phenyl}-3-methylurea] | 51 |  |  |  | 20 | > 10000 | 227 | 0.3 |
| CNC(=O)Nc1ccc(-c2nc(N3CC4CCC(C3)O4)c3cnn([C@H]4CC[C@H](OC)CC4)c3n2)cc1 (relative stereo) [Example 386, 1-{4-[1-(trans-4-methoxycyclohexyl)-4-(8-oxa-3-azabicyclo[3.2.1]oct-3-yl)-1H-pyrazolo[3,4-d]pyrimidin-6-yl]phenyl}-3-methylurea] | 37 |  |  |  | 2 | 7440 | 1170 | 0.375 |
| CNC(=O)Nc1ccc(-c2nc(N3CC4CCC(C3)O4)c3cnn([C@H]4CC[C@@H](OC)CC4)c3n2)cc1 (relative stereo) [Example 387, 1-{4-[1-(cis-4-methoxycyclohexyl)-4-(8-oxa-3-azabicyclo[3.2.1]oct-3-yl)-1H-pyrazolo[3,4-d]pyrimidin-6-yl]phenyl}-3-methylurea] | 19 |  |  |  | 1 | 404 | 705 | 0.33 |
| CO[C@H]1CC[C@H](n2ncc3c(N4CC5CCC(C4)O5)nc(-c4ccc(NC(=O)Nc5ccc(N6CCN(C)CC6)cc5)cc4)nc32)CC1 (relative stereo) [Example 396, 1-{4-[1-(trans-4-methoxycyclohexyl)-4-(8-oxa-3-azabicyclo[3.2.1]oct-3-yl)-1H-pyrazolo[3,4-d]pyrimidin-6-yl]phenyl}-3-[4-(4-methylpiperazin-1-yl)phenyl]urea] | 4 |  |  |  | < 1 | 1790 | 145 | 0.335 |
| CO[C@H]1CC[C@@H](n2ncc3c(N4CC5CCC(C4)O5)nc(-c4ccc(NC(=O)NC5CC5)cc4)nc32)CC1 (relative stereo) [Example 398, 1-cyclopropyl-3-{4-[1-(cis-4-methoxycyclohexyl)-4-(8-oxa-3-azabicyclo[3.2.1]oct-3-yl)-1H-pyrazolo[3,4-d]pyrimidin-6-yl]phenyl}urea] | 20 |  |  |  | 1 | 5650 | 1150 | 0.52 |
| CO[C@H]1CC[C@H](n2ncc3c(N4CC5CCC(C4)O5)nc(-c4ccc(NC(=O)NC5CC5)cc4)nc32)CC1 (relative stereo) [Example 399, 1-cyclopropyl-3-{4-[1-(trans-4-methoxycyclohexyl)-4-(8-oxa-3-azabicyclo[3.2.1]oct-3-yl)-1H-pyrazolo[3,4-d]pyrimidin-6-yl]phenyl}urea] | 41 |  |  |  | 1 | 6600 | 1500 | 0.52 |
| O=C(Nc1ccc(-c2nc(N3CC4CCC(C3)O4)c3cnn([C@H]4CC[C@@H](O)CC4)c3n2)cc1)NC1CC1 (relative stereo) [Example 402, 1-cyclopropyl-3-{4-[1-(cis-4-hydroxycyclohexyl)-4-(8-oxa-3-azabicyclo[3.2.1]oct-3-yl)-1H-pyrazolo[3,4-d]pyrimidin-6-yl]phenyl}urea] | 40 |  |  |  | 2 | > 10000 | 2970 | 0.41 |
| COC(=O)N1CCC(n2ncc3c(N4CC5CCC(C4)O5)nc(-c4ccc(NC(=O)NC5CC5)cc4)nc32)CC1 [Example 12, methyl 4-[6-{4-[(cyclopropylcarbamoyl)amino]phenyl}-4-(8-oxa-3-azabicyclo[3.2.1]oct-3-yl)-1H-pyrazolo[3,4-d]pyrimidin-1-yl]piperidine-1-carboxylate] | 300 | > 10000 |  | 0.52 | 23 |  |  |  |
| Nc1ccc(-c2nc(N3CC4CCC(C3)O4)c3cnn(CC(F)(F)F)c3n2)cc1 [Example 374, 4-[4-(8-oxa-3-azabicyclo[3.2.1]oct-3-yl)-1-(2,2,2-trifluoroethyl)-1H-pyrazolo[3,4-d]pyrimidin-6-yl]aniline] | 5500 |  |  |  | 1000 |  |  | 57 |
| CNC(=O)Nc1ccc(-c2nc(N3C4COCC3C(O)C4)c3cnn(CC(F)(F)F)c3n2)cc1 (stereo not shown) [Example 390, 1-{4-[4-(6-hydroxy-3-oxa-8-azabicyclo[3.2.1]oct-8-yl)-1-(2,2,2-trifluoroethyl)-1H-pyrazolo[3,4-d]pyrimidin-6-yl]phenyl}-3-methylurea] | 10000 |  |  |  | 12000 |  |  | 540 |
| CS(=O)(=O)N1CCN(Cc2cc3nc(-c4ccc(NC(=O)Nc5cccnc5)cc4)nc(N4CC5CCC(C4)O5)c3s2)CC1 [Example 433, 1-{4-[6-{[4-(methylsulfonyl)piperazin-1-yl]methyl}-4-(8-oxa-3-azabicyclo[3.2.1]oct-3-yl)thieno[3,2-d]pyrimidin-2-yl]phenyl}-3-pyridin-3-ylurea] | 60 |  |  |  |  | 286 | 12 | 0.56 |

From patent publication US8129371B2, “Thienopyrimidine and pyrazolopyrimidine compounds and their use as mTOR kinase and PI3 kinase inhibitors” (Wyeth LLC, priority 2007, dated 2012)
